Source: article PMC4382154, “Screening of the Pan-African Natural Product Library Identifies Ixoratannin A-2 and Boldine as Novel HIV-1 Inhibitors” (PLoS ONE, 2015)

Legend:
HIV-1INT = HIV-1INT replication in CEM-GXR cells; assay type: cell-based; details: for EC50: Human immunodeficiency virus 1, CEM-GXR, 96 h, read-out: EC50 HIV-1INT
Procedure: (§1) HIV-1Δvpu was constructed by digesting plasmid p210-13 3’ Δ-vpu with EcoRI and NheI enzymes. The resulting DNA fragment was then ligated into wild-type pNL4-3 plasmid digested with the same enzymes. HIV-1Δvpu and HIV-1NL4-3 viral stocks were prepared by transfection of HEK-293T cells, as previously described. Patient plasma-HIV-1 RNA sequences were analyzed for resistance mutations using the HIV Drug Resistance Database Genotype Resistance Interpretation Algorithm (hivdb.stanford.edu). Recombinant HIV-1NL4-3 expressing patient-derived HIV-1 sequences harboring resistance mutations to protease and reverse transcriptase inhibitors (HIV-1PR+RT), reverse transcriptase inhibitors (HIV-1RT), and integrase inhibitors (HIV-1INT) were generated by homologous recombination following co-transfection as reported.
(§2) CEM-GXR cells are an immortalized CD4+ T-lymphocyte line engineered that naturally express the HIV-1 coreceptor CXCR4 and have been further engineered to express the HIV-1 co-receptor CCR5 and a Tat-driven LTR-GFP expression cassette. As such, intracellular GFP expression indicates HIV-1 infection. Cultures of 10^5 CEM-GXR cells were seeded into 96-well plates with RPMI-1640 media (Sigma) supplemented with penicillin/streptomycin plus 20% fetal calf serum (R20+), infected with HIV-1 at a multiplicity of infection of 0.03 (to achieve 3% infected cells on Day 2), and incubated at 37°C and 5% CO2. 24 hours later, cells were pelleted at 750 g and resuspended in R20+ containing compound or 0.1% DMSO. […] Cells were then incubated at 37°C and 5% CO2 for an additional 72 h. 5,000 cells from each culture were measured for cell toxicity and GFP expression by flow cytometry. Flow cytometry data were analyzed using FlowJo v. 8.8.7 software (FlowJo LLC, Ashland, OR). […] Background GFP expression in uninfected cultures was set at 0.05% GFP-positive cells. For each experiment, all data points were obtained in triplicate. All data are reported as the mean ± s.e.m. from at least 3 independent experiments performed with different virus stocks and/or performed on different days. However, all experiments that compare HIV-1NL4-3 and mutant HIV-1 were performed in parallel. EC50 and CC50 values for each compound were calculated from at least four concentrations. Statistical analyses were performed using Student’s unpaired t test, with a p value < 0.05 plus a Bonferroni correction to adjust for multiple comparisons considered significant.
(§3) To investigate the mechanisms by which ixoratannin A-2 and boldine may block HIV-1 replication, we used a previously-reported HIV-1NL4-3 strain lacking the Vpu coding region (HIV-1Δvpu). We also constructed recombinant HIV-1NL4-3 strains harboring protease, reverse transcriptase, and/or integrase sequences of HIV-1 strains from patients who had developed resistance to the protease inhibitor Indinavir (IND), the non-nucleoside reverse transcriptase inhibitor Efavirenz (EFV), and/or the integrase inhibitor Raltegravir (RAL) (denoted HIV-1PR+RT, HIV-1RT, and HIV-1INT, respectively). Re-sequencing of the recombinant viruses confirmed the presence of multiple mutations known to confer resistance to IND, EFV, and/or RAL (Table 2).

HIV-1Δvpu = HIV-1Δvpu replication in CEM-GXR cells; assay type: cell-based; details: for fold less effective at inhibiting HIV-1Δvpu compared to HIV-1NL4-3: 75 μM, CEM-GXR cells; for EC50: Human immunodeficiency virus 1, CEM-GXR, 96 h, read-out: EC50 HIV-1Δvpu
Procedure: as §1, §2, §3

HIV-1PR+RT = HIV-1PR+RT replication in CEM-GXR cells; assay type: cell-based; details: for HIV-1PR+RT replication fold higher than HIV-1NL4-3: 75 μM; for EC50: Human immunodeficiency virus 1, CEM-GXR, 96 h, read-out: EC50 HIV-1PR+RT
Procedure: as §1, §2, §3

hERG potassium channel = tested on: hERG potassium channel; design: method as in PMID 24963621; details: two electrode voltage clamp, Xenopus oocytes; read-out: IC50 hERG potassium channel currents; cited from earlier work
[1] = concentrations up to 75 or 100 μM, CEM-GXR cells

| Compound | HIV-1INT replication fold higher than HIV-1NL4-3 (HIV-1INT; 75 μM, CEM-GXR cells) | EC50 (HIV-1INT) | fold less effective at inhibiting HIV-1Δvpu compared to HIV-1NL4-3 (HIV-1Δvpu) | EC50 (HIV-1Δvpu) | HIV-1PR+RT replication fold higher than HIV-1NL4-3 (HIV-1PR+RT; CEM-GXR cells) | EC50 (HIV-1PR+RT) | IC50 (hERG potassium channel) | inhibition of HIV-1INT (HIV-1INT; [1]) | HIV-1PR+RT replication fold greater vs. HIV-1NL4-3 (HIV-1PR+RT; 25 μM, CEM-GXR cells) | HIV-1PR+RT replication fold increased vs. HIV-1NL4-3 (HIV-1PR+RT; concentration not stated) | inhibition of HIV-1PR+RT (HIV-1PR+RT; [1]) |
| --- | --- | --- | --- | --- | --- | --- | --- | --- | --- | --- | --- |
| Oc1cc(O)c2c(c1)OC1(c3ccc(O)c(O)c3)Oc3c4c(c5c(c3C2C1O)OC1(c2ccc(O)c(O)c2)Oc2cc(O)cc(O)c2C5C1O)OC(c1ccc(O)c(O)c1)C(O)C4 (stereo not shown) [ixoratannin A-2] | 1.5 fold | 38.4 µM | 1.4 fold | 52 µM | 1.5 fold | 36.4 µM | – | – | – | – | – |
| COc1cc2c(cc1O)C[C@H]1c3c(cc(O)c(OC)c3-2)CCN1C [boldine] | – | > 100 µM | 1.3 fold | > 100 µM | 1.5 fold | > 100 µM | 19.3 µM | < 50% | 1.4 fold | 1.4 fold | < 50% |
